# Reference: patent US20070066682A1, “Arylalkylamine vanadium (V) salts for the treatment and/or prevention of Diabetes mellitus” (priority 2005, published 2007)
# pEC50: −log10 of the molar value. Entries after “also recorded” stand apart in the source; their conditions may differ.
# What was measured:
# protein kinase B = assay: Protein kinase B phosphorylation in isolated rat adipocytes; type: cell-based
# Description: Isolated fat cells were disrupted for total membrane preparation by hypo-osmotic lysis in a 20 mM HES buffer and an antiprotease and antiphosphatase cocktail as reported by Abella et al. (2003, Diabetes 52: 1004-1013). Protein concentrations were determined by the Bradford method (Bradford, 1976, Anal. Biochem. 72: 248-254) with gamma-globulin as protein concentration standard. Immunoprecipitation and immunoblot assays were performed as previously described by Abella et al. (2004, Id.) with the use of a monoclonal antiphosphotyrosine antibody for the immunoprecipitation and an anti-insulin receptor antibody for immunoblotting, respectively. SDS-polyacrylamide gel electrophoresis was performed on membrane proteins following conventional procedures. Proteins were transferred to Immobilon and immunoblotting was performed as reported by Castello et al. (1994, J. Biol. Chem. 269: 5905-5912).
# The mechanism of action of B6V10 was investigated in isolated rat adipocytes. Adipose cells from Wistar rats were incubated for different times in the presence of 25 μM hexaquis(benzylammonium) decavanadate (B6V10). Cells were also incubated in the presence of insulin (100 nM, 45 min), decavanadate (25 μM, 45 min) or semicarbazide (1 mM, 45 min). Subsequently, 2-deoxyglucose uptake (results shown in FIG. 7A), tyrosine phosphorylation of insulin receptor (FIG. 7B), phospho-Thr^308-protein kinase B (FIG. 7C) and phospho-Ser^473-protein kinase B (FIG. 7D) was measured. […] The phosphorylation of protein kinase B induced by B6V10 was parallel to activation of glucose transport (FIG. 7C and 7D).
# (§1) The effects of incubation with semicarbazide or phosphatidylinositol 3-kinase inhibitors were also investigated. Adipose cells were incubated with B6V10 (25 μM, 45 min) in the absence or presence of wortmannin (2 μM, 45 min), LY294002 (10 μM, 45 min) or semicarbazide (1 mM, 45 min) and thereafter 2-deoxyglucose uptake was determined during 5 min.
# isolated rat adipocytes = assay: Glucose transport (2-deoxyglucose uptake) in isolated rat adipocytes; type: cell-based; conditions: for stimulation of glucose transport in the presence of semicarbazide: 1 mM semicarbazide; for stimulation of glucose transport in the presence of semicarbazide / stimulation of glucose transport (2-DG uptake): dihydrate; for stimulation of glucose transport (2-DG uptake): 45 min incubation
# Description: In order to determine whether salts formed by vanadate and benzylamine could produce an insulin mimetic effect, the effect of increasing concentrations of hexaquis(benzylammonium) decavanadate on glucose transport activity in isolated rat adipocytes was tested. […] In similar assays, the activity of hexaquis(benzylammonium) decavanadate, pentaquis(benzylammonium) decavanadate and tetraquis(benzylammonium) decavanadate on glucose transport activity in isolated rat adipocytes were analyzed.
# To determine the possible insulin mimetic effect of certain vanadium arylalkylamines, the capacity of these compounds to enhance glucose transport in isolated rat adipocytes was tested. Adipose cells from Wistar rats were incubated for 45 minutes in basal conditions (Basal) or in the presence of 100 nM insulin (Ins), and different concentrations of. hexaquis(benzylammonium) decavanadate (B6V10) in the absence or in the presence of 1 mM semicarbazide (SCZ). Subsequently, 2-DG transport was measured over a 5 min. interval.
# The effects of the three tested compounds (B6V10, B5V10 and B4V10) were compared. Adipose cells from Wistar rats were incubated for 45 minutes in basal conditions (Basal) or in the presence of 100 nM insulin (Ins), and different concentrations of. decavanadate (V10), hexaquis(benzylammonium) decavanadate (B6V10), pentaquis(benzylammonium) decavanadate (B5V10) or tetraquis(benzylammonium) decavanadate (B4V10) in the absence or in the presence of 1 mM semicarbazide (SCZ). 2-DG transport was measured over 5 min. intervals. […]
# as §1
# diabetic rats = assay: Plasma free fatty acids, triglycerides and cholesterol of diabetic rats; type: in vivo, rat
# Description: In glucose tolerance tests and in chronic treatments, circulating glucose concentrations were determined by a rapid glucose analyser (Accutrend® Sensor Comfort, Roche, Basel. Switzerland). Plasma insulin (IRI) concentration was determined by ELISA method using a kit obtained from Crystal Chem Inc. (Downers Grove, Ill.). Plasma triglycerides (Biosystems, Barcelona, Spain) and NEFAS (Wako Chemicals, Neuss, Germany) were determined with standard […] methods.
# [1] = isolated rat adipocytes, listed as hexaquis(benzylammonium) decavanadate
# [2] = isolated rat adipocytes, FIG. 1
substance,measurement,setting,value
hexaquis(benzylammonium) decavanadate (V) dihydrate [Entry B6V10],protein kinase B phosphorylation,"protein kinase B; 25 μM, rat adipocytes",rapidly stimulated protein kinase B
same,time at which protein kinase B phosphorylation was detectable,"protein kinase B; 25 μM, rat adipocytes",≤ 2.5 min
same,protein kinase B phosphorylation in the presence of semicarbazide,"protein kinase B; B6V10 25 μM, semicarbazide 1 mM, 45 min",blocked by semicarbazide
same,stimulation of glucose transport at 25 μM compared with the combination of benzylamine and vanadate,"isolated rat adipocytes; 25 μM vs 100 μM benzylamine and 100 μM vanadate, rat adipocytes",greater stimulation of glucose transport than the combination of 100 μM benzylamine and 100 μM vanadate
same,stimulation of glucose transport in the presence of semicarbazide,isolated rat adipocytes; isolated rat adipocytes,completely blocked by semicarbazide; also recorded: blocked in the presence of semicarbazide
same,stimulation of glucose transport in the presence of semicarbazide,isolated rat adipocytes; [1],completely blocked by semicarbazide; also recorded: this effect was inhibited
same,stimulation of glucose transport (2-DG uptake),isolated rat adipocytes; isolated rat adipocytes,stimulated glucose transport in rat adipocytes in a concentration-dependent manner
same,stimulation of glucose transport (2-DG uptake),isolated rat adipocytes; [1],pronounced stimulation on glucose transport
same,concentration from which stimulation of glucose transport was perceptible,isolated rat adipocytes; [2],≥ 0.5 µM
same,concentration of maximal effect on glucose transport,isolated rat adipocytes; [2],2.5 µM
same,pEC50,"isolated rat adipocytes; isolated rat adipocytes, FIG. 1, read-out: concentration of semi-maximal effect on glucose transport",< 6.00
same,maximum effect on glucose transport compared with benzylamine and vanadate in combination,"isolated rat adipocytes; isolated rat adipocytes, combination 100 μM sodium vanadate and 100 μM benzylamine (FIG. 1)",greater than that produced by the presence of benzylamine and vanadate in combination
same,maximal effect on glucose transport as % of the maximal stimulation caused by insulin,"isolated rat adipocytes; rat adipocytes, 100 nM insulin",85%
same,"plasma concentrations of free fatty acids, triglycerides and cholesterol",diabetic rats,"normalized the plasma concentrations of free fatty acids, triglycerides and cholesterol"
